# Measured values published in patent US11413240B2 (Board of Regents, The University of Texas System, priority 2016, dated 2022).
# Experiments:
# [1] = in vivo; cited from earlier work
# [2] = 10 g/L, 25° C. (77° F.); cited from earlier work
# [3] = test system: patients with oral mucositis pain/lesions; experiment: Additional patients assessed after methylene blue oral rinse at 0.025%, 0.05% and 0.1% (Table 2)
structure (smiles),measurement,setting,value
CN(C)c1ccc2nc3ccc(=[N+](C)C)cc-3sc2c1 [methylene blue],blood-brain barrier passage,[1],crosses the blood-brain barrier
same,pH in water,[2],3
same,analgesia,"[3]; 0.05-0.1% methylene blue as a mouth rinse, almost all patients",sustained analgesia over a few days to several months
same,onset (of MB effect),[3]; MB 0.025% oral rinse,2 D
same,onset (of MB effect),[3]; MB 0.05% oral rinse,1 W
same,tolerability,"[3]; mouth rinse, case series",tolerated well
